Data as given in patent US10538555B2, “Macrocyclic inhibitors of the PD-1/PD-L1 and CD80(B7-1)/PD-L1 protein/protein interactions” (BRISTOL-MYERS SQUIBB COMPANY, priority 2014, dated 2020).
*1 amine or outer side, *2 acyl side, *3 side chain or, on linkers, in order; H or OH if unused. Where a SMILES comes first, the peptide text is derived from it. Bridges are numbered along the chain shown (N, C = ends). [ ]: non-standard residue; d: D form. ξ: configuration not given here. Phe(3,4,5-F3) = N[C@@H](Cc1cc(F)c(F)c(F)c1)C(=O)O; Phe(3,4-F2) = N[C@@H](Cc1ccc(F)c(F)c1)C(=O)O; Phe(4-F) = N[C@@H](Cc1ccc(F)cc1)C(=O)O; d(cisHyp) = O=C(O)[C@H]1C[C@@H](O)CN1; Bta = N[C@@H](Cc1csc2ccccc12)C(=O)O; ξPro(4R-OH) = O=C(O)C1C[C@@H](O)CN1; Hyp = O=C(O)[C@@H]1C[C@@H](O)CN1; NMeF = CN[C@@H](Cc1ccccc1)C(=O)O; X1 = O=C([C@H]1COCCN1[*:1])[*:2]; dPip(4-aza) = O=C(O)[C@H]1CNCCN1; dHyp = O=C(O)[C@H]1C[C@H](O)CN1; Aad = N[C@@H](CCCC(=O)O)C(=O)O; NMeL = CN[C@@H](CC(C)C)C(=O)O; NMehSer = CN[C@@H](CCO)C(=O)O; NMeNle = CCCC[C@H](NC)C(=O)O; Pip = O=C(O)[C@@H]1CCCCN1; dPip = O=C(O)[C@H]1CCCCN1; ξR = N=C(N)NCCCC(N)C(=O)O; NMeA = CN[C@@H](C)C(=O)O; Orn = NCCC[C@H](N)C(=O)O; Dab = NCC[C@H](N)C(=O)O; Dap = NC[C@H](N)C(=O)O; ξC = NC(CS)C(=O)O

Each compound was assayed against T1, Human PD-L1/PD-1 (Homo sapiens, UniProt Q9NZQ7) (assay: HTRF Human PD-L1/PD-1 binding assay (PD-1-Ig/PD-L1-His)). Conditions: PD-L1-His 10 nM, PD-1-Ig 20 nM; class symbol; read-out: HTRF Human PD-L1/PD-1 Binding Assay IC50 Range.
T1 construct: TVMV protease cleavage site (C); made in house; host or cells: HEK293T cells
Excerpt: Methods for Testing the Ability of Macrocyclic Peptides to Compete for the Binding of PD-1 to PD-L1 Using Homogenous Time-Resolved Fluorescence (HTRF) Binding Assays
The ability of the macrocyclic peptides of the present disclosure to bind to PD-L1 was investigated using a PD-1/PD-L1 Homogenous Time-Resolved Fluorescence (HTRF) binding assay.
Homogenous Time-Resolved Fluorescence (HTRF) Assays of Binding of Soluble PD-1 to Soluble PD-L1. Soluble PD-1 and soluble PD-L1 refers to proteins with carboxyl-end truncations that remove the transmembrane-spanning regions and are fused to heterologous sequences, specifically the Fc portion of the human immunoglobuling G sequence (Ig) or the hexahistidine epitope tag (His). All binding studies were performed in an HTRF assay buffer consisting of dPBS supplemented with 0.1% (w/v) bovine serum albumin and 0.05% (v/v) Tween-20. For the PD-1-Ig/PD-L1-His binding assay, inhibitors were pre-incubated with PD-L1-His (10 nM final) for 15 m in 4 μl of assay buffer, followed by addition of PD-1-Ig (20 nM final) in 1 μl of assay buffer and further incubation for 15 m. PD-L1 fusion proteins from either human, cynomolgus macaques, or mouse were used. HTRF detection was achieved using europium crypate-labeled anti-Ig monoclonal antibody (1 nM final) and allophycocyanin (APC) labeled anti-His monoclonal antibody (20 nM final). Antibodies were diluted in HTRF detection buffer and 5 μl was dispensed on top of binding reaction. The reaction was allowed to equilibrate for 30 minutes and signal (665 nm/620 nm ratio) was obtained using an EnVision fluorometer. Additional binding assays were established between PD-1-Ig/PD-L2-His (20 and 5 nM, respectively), CD80-His/PD-L1-Ig (100 and 10 nM, respectively) and CD80-His/CTLA4-Ig (10 and 5 nM, respectively). Competition studies between biotinylated Compound No. 71 and human PD-L1-His were performed as follows. Macrocyclic peptide inhibitors were pre-incubated with PD-L1-His (10 nM final) for 60 minutes in 4 μl of assay buffer followed by addition of biotinylated Compound No. 71 (0.5 nM final) in 1 μl of assay buffer. Binding was allowed to equilibrate for 30 minutes followed by addition of europium crypated labeled Streptavidin (2.5 pM final) and APC-labeled anti-His (20 nM final) in 5 μl of HTRF buffer. The reaction was allowed to equilibrate for 30 m and signal (665 nm/620 nm ratio) was obtained using an EnVision fluorometer.
Recombinant Proteins. Carboxyl-truncated human PD-1 (amino acids 25-167) with a C-terminal human Ig epitope tag [hPD-1 (25-167)-3S-IG] and human PD-L1 (amino acids 18-239) with a C-terminal His epitope tag [hPD-L1([…])-tobacco vein mottling virus protease cleavage site (TVMV)-His] were expressed in HEK293T cells and purified sequentially by rProteinA affinity chromatography and size exclusion chromatography.

T1 sequence (Q9NZQ7 with tags, fused parts or gaps): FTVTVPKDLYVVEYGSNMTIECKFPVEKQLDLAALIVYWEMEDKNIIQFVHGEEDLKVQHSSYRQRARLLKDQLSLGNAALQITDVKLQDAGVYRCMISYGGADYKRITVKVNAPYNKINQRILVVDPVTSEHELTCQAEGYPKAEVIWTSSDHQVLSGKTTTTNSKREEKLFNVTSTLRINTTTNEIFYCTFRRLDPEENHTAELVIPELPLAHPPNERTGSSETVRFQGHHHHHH

Row | IC50 [nM] | Structure (SMILES)
1 | 1 to 9.9 | CCCC[C@H]1C(=O)N(C)[C@@H](CCCC)C(=O)N[C@@H](CC(C)C)C(=O)N[C@H](C(=O)NCC(N)=O)CSCC(=O)N[C@@H](Cc2ccc(O)cc2)C(=O)N(C)[C@@H](C)C(=O)N[C@@H](CC(N)=O)C(=O)N2CCC[C@H]2C(=O)N[C@H](C)C(=O)N[C@@H](CCC(=O)O)C(=O)N2C[C@H](O)C[C@H]2C(=O)N[C@@H](Cc2c[nH]c3ccccc23)C(=O)N[C@@H](CCN)C(=O)N[C@@H](Cc2csc3ccccc23)C(=O)N1C [Example 5248] ({CH2CO}-Y[NMeA]NP[dA]E[Hyp]W[Dab][Bta][NMeNle][NMeNle]LCG-NH2; thioether N-14)
2 | 10 to 99.9 | CCCC[C@H]1C(=O)N(C)[C@@H](CCCC)C(=O)NC(CCCNC(=N)N)C(=O)N[C@H](C(=O)NCC(N)=O)CCCC(=O)N[C@@H](Cc2ccc(O)cc2)C(=O)N(C)[C@@H](C)C(=O)N[C@@H](CC(N)=O)C(=O)N2CCC[C@H]2C(=O)N[C@@H](CN)C(=O)N[C@@H](CC(C)C)C(=O)N2C[C@H](O)CC2C(=O)N[C@@H](Cc2c[nH]c3ccccc23)C(=O)N[C@@H](CO)C(=O)N[C@@H](Cc2c[nH]c3ccccc23)C(=O)N1C (stereo partly drawn) [Example 7067] (Y[NMeA]NP[Dap]L[ξPro(4R-OH)]WSW[NMeNle][NMeNle][ξR][Aad]G-NH2; lactam N-14)
3 | 1 to 9.9 | CCCC[C@H]1C(=O)N(C)[C@@H](CCCC)C(=O)N[C@@H](CCCNC(=N)N)C(=O)NC(C(=O)NCC(N)=O)CSCC(=O)N[C@@H](Cc2ccc(O)cc2)C(=O)N(C)[C@@H](C)C(=O)N[C@@H](Cc2cnc[nH]2)C(=O)N2CCC[C@H]2C(=O)N[C@@H](CC(N)=O)C(=O)N[C@@H](CC(C)C)C(=O)N2CCC[C@H]2C(=O)N[C@@H](Cc2c[nH]c3ccccc23)C(=O)N[C@@H](CO)C(=O)N[C@@H](Cc2csc3ccccc23)C(=O)N1C (stereo partly drawn) [Example 9145] ({CH2CO}-Y[NMeA]HPNLPWS[Bta][NMeNle][NMeNle]R[ξC]G-NH2; thioether N-14)
4 | 10 to 99.9 | CCCC[C@H]1C(=O)N2C[C@H](O)C[C@@H]2C(=O)N[C@@H](CC(=O)O)C(=O)N[C@@H](C(C)C)C(=O)N(C)[C@@H](Cc2ccccc2)C(=O)N[C@@H](CCC(=O)O)C(=O)N2CCNC[C@@H]2C(=O)N[C@@H](Cc2c[nH]c3ccccc23)C(=O)N[C@@H](Cc2ccc(O)cc2)C(=O)N[C@@H](CCCN)C(=O)N[C@H](C(=O)NCC(N)=O)CSCC(=O)N[C@@H](Cc2ccc(F)cc2)C(=O)N(C)[C@@H](Cc2ccccc2)C(=O)N1C [Example 3648] ({CH2CO}-[Phe(4-F)][NMeF][NMeNle][d(cisHyp)]DV[NMeF]E[dPip(4-aza)]WY[Orn]CG-NH2; thioether N-13)
5 | 1 to 9.9 | COCC[C@H]1C(=O)N2C[C@@H](O)C[C@@H]2C(=O)N[C@@H](CC(=O)O)C(=O)N[C@@H](C(C)C)C(=O)N(C)[C@@H](Cc2ccccc2)C(=O)N[C@@H](CCC(N)=O)C(=O)N2CCOC[C@@H]2C(=O)N[C@@H](Cc2c[nH]c3ccccc23)C(=O)N[C@@H](Cc2ccc(O)cc2)C(=O)N[C@@H](CCCN)C(=O)N[C@H](C(=O)NCC(N)=O)CSCC(=O)N[C@@H](Cc2cc(F)c(F)c(F)c2)C(=O)N(C)[C@@H](Cc2ccccc2)C(=O)N1C [Example 9267] ({CH2CO}-[Phe(3,4,5-F3)][NMeF][NMehSer](Me)[dHyp]DV[NMeF]Q[X1]WY[Orn]CG-NH2; thioether N-13)
6 | 1 to 9.9 | CCCC[C@H]1C(=O)N(C)[C@@H](CCCC)C(=O)N[C@@H](CCC(=O)O)C(=O)NC(C(=O)NCC(N)=O)CSCC(=O)N[C@@H](Cc2ccc(O)cc2)C(=O)N(C)[C@@H](C)C(=O)N[C@@H](CC(N)=O)C(=O)N2CCC[C@H]2C(=O)N[C@@H](CC(N)=O)C(=O)N[C@@H](CC(C)C)C(=O)N2CCC[C@H]2C(=O)N[C@@H](Cc2c[nH]c3ccccc23)C(=O)N[C@@H](CO)C(=O)N[C@@H](Cc2c[nH]c3ccccc23)C(=O)N1C (stereo partly drawn) [Example 9168] ({CH2CO}-Y[NMeA]NPNLPWSW[NMeNle][NMeNle]E[ξC]G-NH2; thioether N-14)
7 | 1 to 9.9 | CCCC[C@H]1C(=O)N(C)[C@@H](CCCC)C(=O)N[C@@H](C)C(=O)N[C@H](C(=O)NCC(N)=O)CSCC(=O)N[C@@H](Cc2ccc(O)cc2)C(=O)N2CCCC[C@H]2C(=O)N[C@@H](CC(=O)O)C(=O)N2CCC[C@H]2C(=O)N[C@@H](CN)C(=O)N[C@@H](CCC(N)=O)C(=O)N2C[C@H](O)C[C@H]2C(=O)N[C@@H](Cc2c[nH]c3ccccc23)C(=O)N[C@@H](CO)C(=O)N[C@@H](Cc2c[nH]c3ccccc23)C(=O)N1C [Example 1257] ({CH2CO}-Y[Pip]DP[Dap]Q[Hyp]WSW[NMeNle][NMeNle]ACG-NH2; thioether N-14)
8 | 10 to 99.9 | CCCC[C@H]1C(=O)N2CCC[C@@H]2C(=O)N[C@@H](CC(=O)O)C(=O)N[C@@H](C(C)C)C(=O)N(C)[C@@H](Cc2ccccc2)C(=O)N[C@@H](CCC(=O)O)C(=O)N2CCOC[C@@H]2C(=O)N[C@@H](Cc2c[nH]c3ccccc23)C(=O)N[C@@H](Cc2ccc(O)cc2)C(=O)N[C@@H](CCCN)C(=O)N[C@H](C(=O)NCC(N)=O)CSCC(=O)N[C@@H](Cc2cc(F)c(F)c(F)c2)C(=O)N(C)[C@@H](Cc2ccccc2)C(=O)N1C [Example 3645] ({CH2CO}-[Phe(3,4,5-F3)][NMeF][NMeNle][dP]DV[NMeF]E[X1]WY[Orn]CG-NH2; thioether N-13)
9 | 10 to 99.9 | CCCC[C@H]1C(=O)N(C)[C@@H](CCOC)C(=O)N[C@@H](CCC(=O)O)C(=O)N[C@H](C(=O)NCC(N)=O)CSCC(=O)N[C@@H](Cc2ccc(O)cc2)C(=O)N(C)[C@@H](C)C(=O)N[C@@H](CC(=O)O)C(=O)N2CCC[C@H]2C(=O)N[C@@H](Cc2c[nH]cn2)C(=O)N[C@@H](CCC(N)=O)C(=O)N2C[C@H](O)C[C@H]2C(=O)N[C@@H](Cc2c[nH]c3ccccc23)C(=O)N[C@@H](CO)C(=O)N[C@@H](Cc2c[nH]c3ccccc23)C(=O)N1C [Example 10142] ({CH2CO}-Y[NMeA]DPHQ[Hyp]WSW[NMeNle][NMehSer](Me)ECG-NH2; thioether N-14)
10 | 1000 to 10000 | CCCC[C@H]1C(=O)N(C)[C@@H](CCCC)C(=O)N(C)[C@@H](CC(C)C)C(=O)N[C@H](C(=O)NCC(N)=O)CSCC(=O)N[C@@H](Cc2ccc(O)cc2)C(=O)N(C)[C@@H](C)C(=O)N[C@@H](CC(N)=O)C(=O)N2CCC[C@H]2C(=O)N[C@@H](Cc2c[nH]cn2)C(=O)N[C@@H](CCC(=O)O)C(=O)N2C[C@H](O)C[C@H]2C(=O)N[C@@H](Cc2c[nH]c3ccccc23)C(=O)N[C@@H](CCN)C(=O)N[C@@H](Cc2csc3ccccc23)C(=O)N1C [Example 5264] ({CH2CO}-Y[NMeA]NPHE[Hyp]W[Dab][Bta][NMeNle][NMeNle][NMeL]CG-NH2; thioether N-14)
11 | 1 to 9.9 | CCCC[C@H]1C(=O)N2C[C@H](O)C[C@@H]2C(=O)N[C@@H](CC(=O)O)C(=O)N[C@@H](C(C)C)C(=O)N(C)[C@@H](Cc2ccccc2)C(=O)N[C@@H](CCN)C(=O)N2C[C@H](O)C[C@@H]2C(=O)N[C@@H](Cc2c[nH]c3ccccc23)C(=O)N[C@@H](Cc2ccc(O)cc2)C(=O)N[C@@H](CCCN)C(=O)N[C@H](C(=O)NCC(N)=O)CSCC(=O)N[C@@H](Cc2ccc(F)c(F)c2)C(=O)N(C)[C@@H](Cc2ccccc2)C(=O)N1C [Example 9310] ({CH2CO}-[Phe(3,4-F2)][NMeF][NMeNle][d(cisHyp)]DV[NMeF][Dab][d(cisHyp)]WY[Orn]CG-NH2; thioether N-13)
12 | 100 to 990 | CCCC[C@H]1C(=O)N2CCC[C@@H]2C(=O)N[C@@H](CO)C(=O)N[C@@H](C)C(=O)N(C)[C@@H](Cc2ccccc2)C(=O)N[C@@H](Cc2ccc(O)cc2)C(=O)N2CCCC[C@@H]2C(=O)N[C@@H](Cc2c[nH]c3ccccc23)C(=O)N[C@@H](Cc2ccc(O)cc2)C(=O)N[C@@H](CC(C)C)C(=O)N[C@H](C(=O)NCC(N)=O)CSCC(=O)N[C@@H](Cc2ccccc2)C(=O)N(C)[C@@H](Cc2ccccc2)C(=O)N1C [Example 10056] ({CH2CO}-F[NMeF][NMeNle][dP]SA[NMeF]Y[dPip]WYLCG-NH2; thioether N-13)
